In patent US20090233841A1, “ANALGESIC CONJUGATES” (Regents of the University of Minnesota, priority 2005, published 2009):
“Also recorded” adds a separate entry of the source.

Assays:
male ICR mice [1] = experiment: Physical dependence: naloxone-precipitated withdrawal jumping after chronic ICV infusion; format: in vivo, mouse; details: for physical dependence on chronic ICV administration: 3-day ICV infusion, naloxone-precipitated jumping; for # of Jumps (SEM), naloxone-precipitated withdrawal: average jumps in 10 minutes after naloxone 1 mg/kg sc, after 3-day ICV infusion
Description: (§1) Chronic administration To investigate tolerance and dependence associated with these conjugates, chronic ICV administration studies were performed. The compound of interest was administered ICV via a cannula using an osmotic minipump for 3 days, as previously described (Gomori et al., 2003; Mashiko et al., 2003). Withdrawal was measured by administering naloxone (1 mg/kg; subcutaneous (sc)) and counting the naloxone-precipitated jumps for 10 minutes. Tolerance was determined by administering challenge doses of the compound after chronic infusion for 3 days, and determining the chronic ED50 value at that time.
(§2) Chronic ICV infusion. Osmotic minipumps (model 1003D, Alzet, Durect Corporation, Cupertino, Calif.) were filled with saline or the drug to be tested. The dose of each drug was twelve times its ED50 (nmol)/hour. The minipumps were connected by a 1.6-1.8 cm length of PE-60 tubing to a 3-mm long cannula (osmotic pump connector cannula, Plastics One, Roanoke, Va.) and primed in sterile saline at 37° C. overnight.
(§3) The next day, mice were anesthetized with Avertin (2,2,2-tribromoethanol (370 mg/kg, IP)/tert amyl alcohol (0.16 mg/kg, IP)) before surgery. The scalp was shaved and an incision was made along the midline of the scalp. Hemostats were used to make a pocket under the skin between the shoulder blades. The skull was scraped clean of periosteum so that the cannula pedestal would properly adhere to the skull. A micro drill (Fine Science Tools Inc., Foster City, Calif.) was used to drill a hole approximately 1.6 mm lateral and 0.6 mm caudal to bregma. The minipump was placed between the shoulder blades, the cannula was inserted in the drilled hole into the lateral ventricle, and the cannula pedestal was affixed to the skull with cyanoacrylate glue. The animals were allowed to recover on a heating pad (Fine Science Tools, Foster City, Calif.) and were returned to their cages in the animal facility for three days.
Testing for dependence and tolerance. The development of physical dependence was assessed by quantifying withdrawal jumping observed during precipitated withdrawal (Way et al., 1969) on the fourth day after surgery. Mice were injected with naloxone (1 mg/kg, sc) and placed into Plexiglas cylinders for 10 minutes. During those 10 minutes, vertical jumps were counted as withdrawal signs.

male ICR mice [2] = experiment: Tolerance: tail flick ED50 after 3-day chronic ICV infusion (osmotic minipump); format: in vivo, mouse; details: for tolerance on chronic ICV administration: 3-day ICV infusion; for Chronic ED50 nmol (95% C.L.): compound chronically administered ICV for 3 days, then challenge doses; for Saline ED50 nmol (95% C.L.): saline chronically administered ICV for 3 days, then challenge doses of compound; for fold increase in ED50 value after chronic ICV infusion: three-day ICV infusion
Description: as §1, §2, §3
To test the degree of tolerance developed, the osmotic minipump was removed and the mice were returned to their cages for four hours. The mice were then injected with the test drug into the contralateral lateral cerebral ventricle and antinociception was measured with the tail flick test as described above.

mice = experiment: Conditioned place preference (CPP); format: in vivo, mouse; details: for conditioned place preference: IV, 4× the ED90 analgesic dose
Description: Conditioned place preference (CPP) is a technique used to measure the rewarding properties of a drug. Two sides of the CPP apparatus have both visual and tactile differences, so that a mouse can tell the difference between sides. On the first day of testing, the time each mouse spends in either side of the apparatus is measured. For the next three days, the drug is “paired” with one side or the other by injecting the mouse and immediately confining it to that side. On the final day, the amount of time the mouse spends in the drug-paired side is determined and the percent change is calculated. If the percent change is positive, the drug is thought to be rewarding and likely to be abused by humans.
Methods The CPP apparatus used was a plastic box, approximately 12 inches×6 inches×6 inches (1/w/h). One half of the box was transparent with a scored or textured floor and the other half of the box had blue vertical stripes with a smooth floor. The box was divided such that the mice could go from one side to the other through an opening or be confined to one side.
Preconditioning On day 1, each mouse was allowed to explore both sides of the box for 15 minutes to expose them to the novel environment. On day 2, each mouse was placed into the box for 15 minutes and the amount of time the mouse spent in each side of the box was recorded. Mice that spend more than 9 minutes in one side of the box are excluded (two of 32 mice were excluded).
Conditioning On day 3, each mouse was given two sets of IV injections. First, the mice were injected with saline and randomly confined to one side of the box for 30 minutes. The mice were then injected with the drug (or saline, for control mice) and confined to the other side of the box (“drug-paired side”) for 30 minutes. This conditioning paradigm was repeated for three days.
Postconditioning On day 6, the amount of time the mouse spent in each side of the box was recorded. For the results, the amount of time the mouse spent in the drug-paired side during preconditioning was subtracted from the time spent in the drug-paired side during post-conditioning to reach a “score”: Score=Postconditioning time in drug-paired side-Preconditioning time spent in drug-paired side.
FIG. 1 depicts the percent change in time spent in the drug-paired side. The asterisks in the graph indicate significant difference from saline (p<0.05).

male ICR mice [3] = experiment: Mouse radiant heat tail flick assay after acute ICV administration; format: in vivo; details: for ED50 nmol (95% C.L.), antinociceptive potency: conjugates and coadministration; for effect of naltrindole pretreatment on ED50 / acute analgesic activity: pretreatment with the delta antagonist naltrindole; for ED50 ICV (nmol): tail flick, Table 2
Description: Acute drug administration. Drugs were dissolved in sterile saline (0.9% NaCl). Animals were anesthetized with halothane and drugs were administered with a Hamilton syringe mated to a shortened (3 mm) 27-g needle in a volume of 4 μl by ICV injection into the lateral cerebral ventricle (Haley et al., 1957). The injection site was 1.6 mm lateral and 0.6 mm caudal to bregma.
Antinociceptive testing. […] Mice were tested once before injection (control time).

male ICR mice [4] = experiment: Mouse tail flick assay after IV administration
Description: Antinociceptive testing. Antinociception was evaluated by the radiant heat tail flick assay (D'Amour et al., 1941). Briefly, a beam of light was focused on the mouse tail and the time until the tail flicked was measured. Each animal served as its own control and was used only once. Mice were tested once before injection (control time). After injection, the mice were tested at the time of peak drug response (drug time), as determined by pilot time course studies. The light intensity was adjusted so that control times were between 1.5 and 2.5 s. A 10 second cutoff drug time was set to minimize the risk of tissue damage. Percent maximum possible effect (% MPE) was calculated as follows (Dewey et al., 1970): […]
Graded dose response curves of at least 4 doses with at least 8 mice per dose were generated from the % MPE data.
Methods Drugs were administered IV via the tail vein in a volume of 100 μl to male ICR mice. Fifteen minutes later, antinociception was measured by the tail flick assay and charcoal meal (300 μl, oral) was administered by gavage. Thirty minutes after the charcoal meal., the mice were sacrificed by halothane overdose and the distance the charcoal traveled relative to the entire length of the GI tract was compared to the distance traveled in control animals injected with saline. The conjugates tested (MDAN-16, MDAN-19, MDAN-20, and MDAN-21) had linker lengths of 19, 23, 24, and 25 Å.

[5] = mouse tail flick, acute ICV administration

Row | Structure (SMILES) | # of Jumps (SEM), naloxone-precipitated withdrawal (male ICR mice [1]) | Chronic ED50 nmol (95% C.L.) (male ICR mice [2]) | Saline ED50 nmol (95% C.L.) (male ICR mice [2]) | fold increase in ED50 value after chronic ICV infusion (male ICR mice [2]) [fold] | conditioned place preference (mice) | ED50 nmol (95% C.L.), antinociceptive potency (male ICR mice [3]; [5]) | effect of naltrindole pretreatment on ED50 / acute analgesic activity (male ICR mice [3]) | ED50 IV (nmol) (male ICR mice [4]; tail flick, IV) | ED50 ICV (nmol) (male ICR mice [3]) | other results
1 | CN1CCC23c4c5ccc(O)c4OC2C(NC(=O)COCC(=O)NCCNC(=O)COCC(=O)Nc2cccc4c6c([nH]c24)C2Oc4c(O)ccc7c4C24CCN(CC2CC2)C(C7)C4(O)C6)CCC3(O)C1C5 (stereo not shown) [Compound 3] | 30 (23) | 4.72 (3.47-5.91) nmol | 1.62 (1.35-1.89) nmol | 2.6 | suggested a place preference | 1.79 (1.54-2.04) nmol | This effect was not observed |  |  | physical dependence on chronic ICV administration (male ICR mice [1]; listed as MDAN-16): produced both tolerance and dependence; also recorded: both tolerance and physical dependence developed; # of Jumps (SEM), naloxone-precipitated withdrawal (male ICR mice [1]; listed as MDAN-16): 30; tolerance on chronic ICV administration (male ICR mice [2]; listed as MDAN-16): produced both tolerance and dependence; also recorded: both tolerance and physical dependence developed
2 | CN1CCC23c4c5ccc(O)c4OC2C(NC(=O)COCC(=O)NCCCCCNC(=O)COCC(=O)Nc2cccc4c6c([nH]c24)C2Oc4c(O)ccc7c4C24CCN(CC2CC2)C(C7)C4(O)C6)CCC3(O)C1C5 (stereo not shown) [Compound 6] | 3.6 (1.7) | 0.40 (0.33-0.47) nmol | 0.42 (0.37-0.47) nmol |  | did not display a place preference | 0.43 (0.36-0.50) nmol | acute analgesic activity was similar to the control ligand MA-19 |  |  | physical dependence on chronic ICV administration (male ICR mice [1]; listed as MDAN-19): no tolerance or dependence was observed; also recorded: produced no tolerance or physical dependence; tolerance on chronic ICV administration (male ICR mice [2]; listed as MDAN-19): no tolerance or dependence was observed; also recorded: produced no tolerance or physical dependence
3 | CN1CCC23c4c5ccc(O)c4OC2C(NC(=O)COCC(=O)NCCCCCCCNC(=O)COCC(=O)Nc2cccc4c6c([nH]c24)C2Oc4c(O)ccc7c4C24CCN(CC2CC2)C(C7)C4(O)C6)CCC3(O)C1C5 (stereo not shown) [Compound 8] | 3.5 (1.7) | 0.10 (0.09-0.11) nmol | 0.10 (0.09-0.11) nmol |  | did not display a place preference | 0.08 (0.06-0.10) nmol |  | 3.3 (3.0-3.6) nmol | 0.08 (0.06-0.10) nmol | physical dependence on chronic ICV administration (male ICR mice [1]; listed as MDAN-21): no tolerance or dependence was observed; also recorded: produced no tolerance or physical dependence; tolerance on chronic ICV administration (male ICR mice [2]; listed as MDAN-21): no tolerance or dependence was observed; also recorded: produced no tolerance or physical dependence; conditioned place preference (summary statement) (mice; dose not restated): does not produce conditioned place preference; decrease in potency when administering IV versus ICV (male ICR mice [4]; tail flick ED50 IV versus ICV): ~40 ×; potency relative to morphine when given IV (male ICR mice [4]; tail flick, IV): 50 fold
4 | CNC(=O)COCC(=O)NCCCCCNC(=O)COCC(=O)NC1CCC2(O)C3Cc4ccc(O)c5c4C2(CCN3C)C1O5 (stereo not shown) [Compound 12, reference compound] | 83 (13) | 0.22 (0.19-0.26) nmol | 0.04 (0.03-0.05) nmol | 5.5 |  |  |  | 1.61 (1.29-1.92) nmol | 0.04 (0.03-0.05) nmol | physical dependence on chronic ICV administration (male ICR mice [1]): produced both antinociceptive tolerance and physical dependence; # of Jumps (SEM), naloxone-precipitated withdrawal (male ICR mice [1]; listed as MA-19): 83; tolerance on chronic ICV administration (male ICR mice [2]): produced both antinociceptive tolerance and physical dependence; Ligand ED50 pmol (95% C.L.), antinociceptive potency (male ICR mice [3]; mouse tail flick, acute ICV administration, mu control ligands): 39.45 pmol
